Several values for one entry are separate records, joined by “and”; a condition that tells them apart may be missing. Identical values can stand only once. Like-named read-outs stand apart in the source and are kept apart here. Each block holds one compound with its values, some of them ahead of it.
Tests used:
[1] = test system: human PC-3 orthotopic xenografts
Experimental: (§1) Orthotopic xenografts were obtained by injecting 2.5×10^6 human PC-3 or DU-145 cells into the prostate of 6-week-old male nu/nu mice (n=9 animals per treatment group). All grafts were performed under anesthesia [saline/Rompun (Bayer, Leverkusen, Germany)/Imalgene (Merial, Lyons, France); 5:1:1 by volume]. The end point in these orthotopic experiments was the survival period of the tumor-bearing mice after the administration of UNBS3157, UNBS5162, or reference anticancer agents (taxol, mitoxantrone, and amonafide). However, for ethical reasons, animals were killed when 20% of body weight had been lost compared to that determined at the time of tumor grafting. All animals were weighed three times a week. […] In the case of UNBS5162 experiments in the PC-3 model, after the sacrifice of animals, tumors were removed from both drug-treated [10 mg/kg, intravenous (i.v.)] and vehicle-treated mice, fixed in buffered formalin, embedded in paraffin, and 5-μm-thick sections taken. These histologic slides were then stained with hematoxylin and eosin for blood vessel counts.

[2] = test system: human DU-145 orthotopic xenografts; test: Orthotopic DU-145 prostate cancer xenograft, survival; format: in vivo, nu/nu mice; conditions: DU-145 orthotopic model
Experimental: as §1

[3] = test system: human A549 NSCLC orthotopic; conditions: Taxol i.v. 20 mg/kg (1i × 3w)
Experimental: The purpose of the present study was to evaluate the in vivo efficacy of UNBS5162 on human A549 NSCLC orthotopic nude mice model. The endpoint in this experiment was the survival period of the tumor-bearing mice following treatment, as indicated.
The experiment comprised 6 groups of II mice, one group with mice receiving the vehicle only (Ct group) and 5 groups receiving the treatments as indicated in the Table 13. UNBS5162 was dosed i.v. at 10 mg/kg (in lactic acid vehicle). Taxol (Paclitaxel 6 mg/mL, Bristol-Myers Squibb) was dosed i.v. at 20 mg/kg.

PC-3 = test: Senescence-associated β-galactosidase staining, PC-3; format: cell-based, human; conditions: 20 nM Adriamycin, 72 hours
Experimental: After the indicated treatments, cells were washed in PBS, fixed for 3 to 5 minutes (at room temperature) in 2% formaldehyde/0.2% glutaraldehyde, washed and incubated at 37° C. (in the absence of CO2) with fresh senescence-associated β-Gal (SA-β-Gal) staining solution: 1 mg/ml of 5-bromo-4-chloro-3-indolyl […] (X-Gal; Sigma). Staining was evident within 2 to 4 hours and maximal after 12 to 16 hours. To detect lysosomal β-Gal, the citric acid/sodium phosphate used was pH 4.0. As described in the study of Dimri et al. [Proc Natl Acad Sci USA. 1995; 92:9363-9367.], after fixing and staining with X-Gal, the number of cells positive for the SA-β-Gal activity (intense blue staining) was then counted independently by two different individuals (on 400 cells/plate). Representative photographs (original magnifications, ×20) of stained cells from different experimental treatments were taken. As a positive control for SA-β-Gal expression, Adriamycin-treated cells were used.
Human PC-3 and DU-145 prostate cancer cells cultured in 0 or 10 μM UNBS5162 or 20 nM Adriamycin for 72 hours were evaluated by SA-β-Gal staining. The data clearly indicate that 10 μM [but not 1 μM or 5×1 μM] […] TMZ, as an inducer of autophagy but not of senescence, was used as a negative control.

PC3 = test: MTT overall cell growth, PC3 cells; format: cell-based; conditions: Homo sapiens, 72 h; PC-3; 3 days of culturing; mean of six determinations; read-out: IC50 (μM) In Vitro Growth Inhibition
Experimental: Tests were performed in order to rapidly, i.e. within 5 days, measure the effect of the compound of example 2 on the overall cell growth. The test measures the number of metabolically active living cells that are able to transform the yellow product 3-(4,5-dimethylthiazol-2-yl)-2,5-diphenyl tetrazolium bromide (herein referred as MTT) into the blue product formazan dye by mitochondrial reduction. The amount of formazan obtained at the end of the experiment, measured by means of a spectrophotometer, is directly proportional to the number of living cells. Optical density determination thus enables a quantitative measurement of the effect of the investigated compounds as compared to the control condition (untreated cells) and/or to other reference compounds. […]
(§2) After 72 hours of incubation at 37° C. with (experimental conditions) or without (control condition) the compound to be tested, the medium was replaced by 100 μl MTT dissolved in RPMI (1640 without phenol red) at a concentration of 1 mg/ml. […] The micro-wells were shaken for 5 minutes and read on a spectrophotometer at wavelengths of 570 nm (maximum formazan absorbance) and 630 nm (back-ground noise).
For each experimental condition, the mean optical density was calculated, as well as the percentage of remaining living cells in comparison with the control. […]

U-373MG = test: MTT overall cell growth, U-373MG cells; format: cell-based; conditions: Homo sapiens, 72 h; U373-MG; 3 days of culturing; mean of six determinations; read-out: IC50 (μM) In Vitro Growth Inhibition
Experimental: (§3) Tests were performed in order to rapidly, i.e. within 5 days, measure the effect of the compound of example 2 on the overall cell growth. The test measures the number of metabolically active living cells that are able to transform the yellow product 3-(4,5-dimethylthiazol-2-yl)-2,5-diphenyl tetrazolium bromide (herein referred as MTT) into the blue product formazan dye by mitochondrial reduction. The amount of formazan obtained at the end of the experiment, measured by means of a spectrophotometer, is directly proportional to the number of living cells. Optical density determination thus enables a quantitative measurement of the effect of the investigated compounds as compared to the control condition (untreated cells) and/or to other reference compounds.
(§4) Six human cancer cell lines described in table 1 were used in the following MTT tests. These cell lines cover six histological cancer types, being prostate, glioma, pancreas, colon, lung and breast cancers. Cells were allowed to grow in 96 well micro-wells with a flat bottom with an amount of 100 μl of cell suspension per well with 1,000 to 4,000 cells/well depending on the cell type used. Each cell line was seeded in a well known MEM 10% serum culture medium. […]
as §2
(§5) For each experimental condition, the mean optical density was calculated, as well as the percentage of remaining living cells in comparison with the control.
(§6) The overall growth of human cancer cell lines was determined by means of the calorimetric MTT (3-[4,5-dimethylthiazol-2-yl]-diphenyl tetrazolium bromide; Sigma) assay, as detailed previously.

BxPC3 = test: MTT overall cell growth, BxPC3 cells; format: cell-based; conditions: Homo sapiens, BXPC-3, 72 h; Bx-PC-3; 3 days of culturing; mean of six determinations; read-out: IC50 (μM) In Vitro Growth Inhibition
Experimental: as §3, §4, §2, §5, §6

DU-145 = test: MTT colorimetric assay, DU-145 cells; format: cell-based; conditions: Homo sapiens, 72 h, 3 days of culturing, mean of six determinations, read-out: IC50 (μM) In Vitro Growth Inhibition
Experimental: as §6

Hs683 = test: MTT colorimetric assay, Hs683 cells; format: cell-based; conditions: Homo sapiens, Hs 683, 72 h, 3 days of culturing, mean of six determinations, read-out: IC50 (μM) In Vitro Growth Inhibition
Experimental: as §6

HCT-15 = test: MTT colorimetric assay, HCT-15 cells; format: cell-based; conditions: Homo sapiens, 72 h, 3 days of culturing, mean of six determinations, read-out: IC50 (μM) In Vitro Growth Inhibition
Experimental: as §6

LoVo = test: MTT colorimetric assay, LoVo cells; format: cell-based; conditions: Homo sapiens, 72 h, 3 days of culturing, mean of six determinations, read-out: IC50 (μM) In Vitro Growth Inhibition
Experimental: as §6

MCF-7 = test: MTT colorimetric assay, MCF-7 cells; format: cell-based; conditions: Homo sapiens, MCF7, 72 h, 3 days of culturing, mean of six determinations, read-out: IC50 (μM) In Vitro Growth Inhibition
Experimental: as §6

A549 = test: MTT colorimetric assay, A549 cells; format: cell-based; conditions: Homo sapiens, 72 h, 3 days of culturing, mean of six determinations, read-out: IC50 (μM) In Vitro Growth Inhibition
Experimental: as §6

[4] = test system: nine human cancer cell lines; test: MTT colorimetric assay, mean of nine cell lines; format: cell-based; conditions: mean over nine human cancer cell lines, read-out: mean antiproliferative activity IC50
Experimental: as §6
UNBS3157 and UNBS5162 display weak antiproliferative activity in vitro.

P-glycoprotein = test: P-gp ATPase activity (P-gp Drug interaction Assay Kit); format: biochemical
Experimental: In order to test drug interaction with P-glucoprotein (herein-after referred as P-gp) we used an assay based on the study of modulation of ATPase activity from enriched P-gp membrane vesicle preparation (the following kit has been used: P-gp Drug interaction Assay Kit commercially available from SPI BIO France). P-gp ATPase activity was measured by a spectrophotometric method based on monitoring of ADP formation in the vesicle suspension medium. The basal ATPase activity was defined as the activity determined in the absence of any added drug. […]

[5] = In vitro stability of UNBS3157 in saline/DMSO; format: physicochemical; conditions: physiological saline/DMSO (95:5 v/v), 37° C.
[6] = test system: platelets, red and white blood cells; test: Compound-induced hematotoxicity and tolerance in mice; format: in vivo; conditions: five times a week for three weeks
Experimental: We have determined the compound-induced potential hematotoxicity of the compound produced according to example 2 or example 7 on platelets, red and white blood cells in comparison of the effect of amonafide on platelets, red and white blood cells. The effect of amonafide was evaluated at 10 mg/kg and 20 mg/kg, by the intra-peritoneal administration to mice. The administration schedule was five times a week for three consecutive weeks. The effect of the compound produced according to example 2 or example 7 was evaluated at 20 mg/kg, by the intra-venous administration to mice. The administration schedule was three times a week (on Mondays, Wednesdays and Fridays) for five consecutive weeks. The animals were sacrificed 3 days after the last injection. There were 10 mice per group. FIG. 1 illustrates results of this assay for compound-induced hematotoxicity on platelets.

SMILES: O=C1c2c(O)ccc(O)c2C(=O)c2c(NCCNCCO)ccc(NCCNCCO)c21 [mitoxantrone, reference compound]
therapeutic benefit (survival) ([1]; PC-3 orthotopic model, mitoxantrone i.v.): failed to contribute any therapeutic benefit
toxicity ([1]; mouse, in vivo, iv, 2.5 mg/kg): highly toxic

SMILES: CC(=O)O[C@H]1C(=O)[C@@]2(C)[C@H]([C@H](OC(=O)c3ccccc3)[C@]3(O)C[C@H](OC(=O)[C@H](O)[C@@H](NC(=O)c4ccccc4)c4ccccc4)C(C)=C1C3(C)C)[C@]1(OC(C)=O)CO[C@@H]1C[C@@H]2O [taxol, reference compound]
% T/C ([2]; 20 mg/kg i.v.): 146%
T/C (%) [3]: 128%

SA-β-Gal expression (PC-3): Limited SA-β-Gal expression
SMILES: COc1cccc2c1C(=O)c1c(O)c3c(c(O)c1C2=O)C[C@@](O)(C(=O)CO)C[C@@H]3O[C@H]1C[C@H](N)[C@H](O)[C@H](C)O1 [Adriamycin, doxorubicin, reference compound]

SMILES: CN(C)CCN1C(=O)c2cccc3cc(NC(=O)NC(=O)C(Cl)(Cl)Cl)cc(c23)C1=O [UNBS3157, 2,2,2-trichloro-N-[({2-[2-(dimethylamino)ethyl]-1,3-dioxo-2,3-dihydro-1H-benzo[de]isoquinolin-5-yl}amino)carbonyl]acetamide]
IC50 (PC3): 15.1 µM
IC50 (U-373MG): 3.9 µM
IC50 (BxPC3): 17.2 µM
IC50 (DU-145): 23 µM
IC50 (Hs683): 9.9 µM
IC50 (HCT-15): 29.3 µM
IC50 (LoVo): 26.4 µM
IC50 (MCF-7): 44.3 µM
IC50 (A549): 8.7 µM
IC50 [4]: 19.8 µM
modulation of Pgp ATPase activity (P-glycoprotein; 100 μM (data not shown)): do not affect Pgp ATPase activity
% T/C ([1]; PC-3 orthotopic model, 40 mg/kg p.o.): 100%
% T/C ([1]; PC-3 orthotopic model, 160 mg/kg orally): 151%
% T/C ([2]; 20 mg/kg i.v.): 143%
% T/C ([2]; 40 mg/kg orally): 164%
production of amonafide on hydrolysis ([5]; 22-hour incubation): without production of amonafide
hydrolyzed to UNBS5162 ([5]; in 270 minutes, 10^−4 M): 90%

SMILES: CN(C)CCN1C(=O)c2cccc3cc(N)cc(c23)C1=O [amonafide]
tolerance of chronic administrations ([6]; 10 mg/kg intra-peritoneal): tolerated 15 chronic administrations
tolerance of chronic administrations ([6]; 20 mg/kg intra-peritoneal): all animals died before receiving the complete set of 15 administrations
modulation of basal P-gp ATPase activity (P-glycoprotein; 50 μM): significantly alter the ATPase activity
% T/C ([1]; PC-3 orthotopic model, 40 mg/kg p.o., 40 mg/kg): 103% and 107%
activity (survival) ([2]; 20 mg/kg i.v. and lower doses): inactive
% T/C ([2]; 40 mg/kg orally): 138%

Reference: patent US20090186915A1, “Compositions and methods for treatment of glioblastoma, gliosarcoma, NSCLC, and head and neck cancer” (Unibioscreen S. A., priority 2006, published 2009)
